Results taken from ChEMBL document CHEMBL3621049, “Imidazole derivatives show anticancer potential by inducing apoptosis and cellular senescence” (2014).
Active and inactive are the calls of the source.

How the values were obtained:
Assay type in all cases: functional, cell-based
NCI-H322M = test: Growth inhibition of human NCI-H322M cells at 10 uM by sulforhodamine B assay
NCI-H460 = test: Growth inhibition of human NCI-H460 cells at 10 uM by sulforhodamine B assay
MDA-MB-231 = test: Growth inhibition of human MDA-MB-231 cells at 10 uM by sulforhodamine B assay
HOP-92 = test: Growth inhibition of human HOP92 cells at 10 uM by sulforhodamine B assay
SN12C = test: Growth inhibition of human SN12C cells at 10 uM by sulforhodamine B assay
A498 = test: Growth inhibition of human A498 cells at 10 uM by sulforhodamine B assay
MDA-MB-468 = test: Growth inhibition of human MDA-MB-468 cells at 10 uM by sulforhodamine B assay
HT-29 = test: Growth inhibition of human HT-29 cells at 10 uM by sulforhodamine B assay
SF-539 = test: Growth inhibition of human SF539 cells at 10 uM by sulforhodamine B assay
Hs-578T = test: Growth inhibition of human Hs 578T cells at 10 uM by sulforhodamine B assay
LOX IMVI = test: Growth inhibition of human LOXIMVI cells at 10 uM by sulforhodamine B assay
HCT-116 = test: Growth inhibition of human HCT116 cells at 10 uM by sulforhodamine B assay
KM12 = test: Growth inhibition of human KM12 cells at 10 uM by sulforhodamine B assay
T47D = test: Growth inhibition of human T47D cells at 10 uM by sulforhodamine B assay
OVCAR-4 = test: Growth inhibition of human OVCAR4 cells at 10 uM by sulforhodamine B assay
UACC-62 = test: Growth inhibition of human UACC62 cells at 10 uM by sulforhodamine B assay
SR = test: Growth inhibition of human SR cells at 10 uM by sulforhodamine B assay
SK-MEL-2 = test: Growth inhibition of human SK-MEL-2 cells at 10 uM by sulforhodamine B assay
SW-620 = test: Growth inhibition of human SW620 cells at 10 uM by sulforhodamine B assay
NCI-H522 = test: Growth inhibition of human NCI-H522 cells at 10 uM by sulforhodamine B assay
NCI-H23 = test: Growth inhibition of human NCI-H23 cells at 10 uM by sulforhodamine B assay
Malme-3M = test: Growth inhibition of human MALME-3M cells at 10 uM by sulforhodamine B assay
SNB-75 = test: Growth inhibition of human SNB75 cells at 10 uM by sulforhodamine B assay
UACC-257 = test: Growth inhibition of human UACC257 cells at 10 uM by sulforhodamine B assay
A549 = test: Growth inhibition of human A549/ATCC cells at 10 uM by sulforhodamine B assay
CCRF-CEM = test: Growth inhibition of human CCRF-CEM cells at 10 uM by sulforhodamine B assay
HL-60(TB) = test: Growth inhibition of human HL-60(TB) cells at 10 uM by sulforhodamine B assay
SF-295 = test: Growth inhibition of human SF295 cells at 10 uM by sulforhodamine B assay
IGROV-1 = test: Growth inhibition of human IGROV1 cells at 10 uM by sulforhodamine B assay
BT-549 = test: Growth inhibition of human BT549 cells at 10 uM by sulforhodamine B assay
SF-268 = test: Growth inhibition of human SF268 cells at 10 uM by sulforhodamine B assay
SK-OV-3 = test: Growth inhibition of human SKOV3 cells at 10 uM by sulforhodamine B assay
RPMI-8226 = test: Growth inhibition of human RPMI8226 cells at 10 uM by sulforhodamine B assay
K562 = test: Growth inhibition of human K562 cells at 10 uM by sulforhodamine B assay
M14 = test: Growth inhibition of human M14 cells at 10 uM by sulforhodamine B assay
NCI-H226 = test: Growth inhibition of human NCI-H226 cells at 10 uM by sulforhodamine B assay
UO-31 = test: Growth inhibition of human UO31 cells at 10 uM by sulforhodamine B assay
MOLT-4 = test: Growth inhibition of human MOLT4 cells at 10 uM by sulforhodamine B assay
SNB-19 = test: Growth inhibition of human SNB19 cells at 10 uM by sulforhodamine B assay
COLO 205 = test: Growth inhibition of human COLO205 cells at 10 uM by sulforhodamine B assay
SK-MEL-28 = test: Growth inhibition of human SK-MEL-28 cells at 10 uM by sulforhodamine B assay
MDA-MB-435 = test: Growth inhibition of human MDA-MB-435 cells at 10 uM by sulforhodamine B assay
DU-145 = test: Growth inhibition of human DU145 cells at 10 uM by sulforhodamine B assay
PC-3 = test: Growth inhibition of human PC3 cells at 10 uM by sulforhodamine B assay
CAKI-1 = test: Growth inhibition of human Caki1 cells at 10 uM by sulforhodamine B assay
OVCAR-3 = test: Growth inhibition of human OVCAR3 cells at 10 uM by sulforhodamine B assay
RXF 393 = test: Growth inhibition of human RXF393 cells at 10 uM by sulforhodamine B assay
MCF7 = test: Growth inhibition of human MCF7 cells at 10 uM by sulforhodamine B assay
TK-10 = test: Growth inhibition of human TK10 cells at 10 uM by sulforhodamine B assay
NCI/ADR-RES = test: Growth inhibition of human NCI/ADR-RES cells at 10 uM by sulforhodamine B assay
OVCAR-8 = test: Growth inhibition of human OVCAR8 cells at 10 uM by sulforhodamine B assay
ACHN = test: Growth inhibition of human ACHN cells at 10 uM by sulforhodamine B assay
HCC 2998 = test: Growth inhibition of human HCC2998 cells at 10 uM by sulforhodamine B assay
786-0 = test: Growth inhibition of human 786-0 cells at 10 uM by sulforhodamine B assay
SK-MEL-5 = test: Growth inhibition of human SK-MEL-5 cells at 10 uM by sulforhodamine B assay
HCT-15 = test: Growth inhibition of human HCT15 cells at 10 uM by sulforhodamine B assay
U-251 = test: Growth inhibition of human U251 cells at 10 uM by sulforhodamine B assay
HOP-62 = test: Growth inhibition of human HOP62 cells at 10 uM by sulforhodamine B assay
OVCAR-5 = test: Growth inhibition of human OVCAR5 cells at 10 uM by sulforhodamine B assay

Measured: growth inhibition (GI)

C#CCn1c(-c2ccc(OC3CCCC3)c(OC)c2)nc(-c2ccccc2)c1-c1ccccc1
active: NCI-H322M | NCI-H460 | MDA-MB-231 | HOP-92 | SN12C | A498 | MDA-MB-468 | HT-29 | SF-539 | Hs-578T | LOX IMVI | HCT-116 | KM12 | T47D | OVCAR-4 | UACC-62 | SR | SK-MEL-2 | SW-620 | NCI-H522 | NCI-H23 | Malme-3M | SNB-75 | UACC-257 | A549 | CCRF-CEM | HL-60(TB) | SF-295 | IGROV-1 | BT-549 | SF-268 | SK-OV-3 | RPMI-8226 | K562 | M14 | NCI-H226 | UO-31 | MOLT-4 | SNB-19 | COLO 205 | SK-MEL-28 | MDA-MB-435 | DU-145 | PC-3 | CAKI-1 | OVCAR-3 | RXF 393 | MCF7 | TK-10 | NCI/ADR-RES | OVCAR-8 | ACHN | HCC 2998 | 786-0 | SK-MEL-5 | HCT-15 | U-251 | HOP-62 | OVCAR-5

C#CCn1c(-c2ccc(OC)c(OC3CCCC3)c2)nc(-c2ccccc2)c1-c1ccccc1
active: NCI-H322M | NCI-H460 | MDA-MB-231 | HOP-92 | SN12C | A498 | MDA-MB-468 | HT-29 | SF-539 | Hs-578T | LOX IMVI | HCT-116 | KM12 | T47D | OVCAR-4 | UACC-62 | SR | SK-MEL-2 | SW-620 | NCI-H522 | NCI-H23 | Malme-3M | SNB-75 | UACC-257 | A549 | CCRF-CEM | HL-60(TB) | SF-295 | IGROV-1 | BT-549 | SF-268 | SK-OV-3 | RPMI-8226 | K562 | M14 | NCI-H226 | UO-31 | MOLT-4 | SNB-19 | COLO 205 | SK-MEL-28 | MDA-MB-435 | DU-145 | PC-3 | CAKI-1 | OVCAR-3 | RXF 393 | MCF7 | TK-10 | NCI/ADR-RES | OVCAR-8 | ACHN | HCC 2998 | 786-0 | SK-MEL-5 | HCT-15 | U-251 | HOP-62 | OVCAR-5
